# Source: US6211439A, “Herbicide resistance in plants” (MGI Pharma, Inc, priority 1995, dated 2001)
# Like-named read-outs stand apart in the source and are kept apart here.
# Tests used:
# [1] = test system: XA17 seedlings; experiment: Seedling assay, progeny of XA17 regenerated plant x B73 (heterozygous); format: in vivo, maize
# Excerpt: An XA17 regenerated plant with a normal ear was pollinated with pollen obtained from a herbicide sensitive inbred B73 plant grown from seed. Seeds were obtained and harvested approximately forty days post pollination.
# Twenty control seeds and ten XA17 seeds were surface sterilized with 2.6% sodium hypochlorite for twenty minutes and then washed with sterile distilled water. The seed was imbibed overnight in sterile water containing a small quantity of the fungicide, captan (N-trichloromethylthio-4-cyclohexene-1,2-dicarboximide). The mature embryos were then excised from the seed and plated scutellum side down on solid MS media without 2,4-D. Ten control seeds were plated on media containing no 214 and ten were plated in the presence of 6×10^-8M 214 which had been incorporated into the medium after autoclaving but before gelling. All ten XA17 seeds were plated in the presence of 6×10^-8 M 214. Seedlings were evaluated seven days after plating.
# [2] = test system: AHAS activity from line UV18; experiment: AHAS activity assay, line UV18; format: biochemical, maize; details: 3×10^-6 to 3×10^-4 M 997
# Method: Assays were conducted as a modification of the procedure of Smith et al. (1979, Molec. Gen. Genet. 169: 299-314). Plant cell culture material was ground with sand in a cold mortar and pestle in an equal quantity (w/v) of cell disruption media containing 0.05 M potassium phosphate (pH 7.0), 0.1 mM MgSO4, and 0.5 mM dithiothreitol. The preparation was centrifuged at 11,000×g for 20 minutes and the supernatant assayed for AHAS activity. Assays were conducted in 1 ml volumes containing 0.05 M potassium phosphate (pH 8.0), 40 mM pyruvate, 5 mM MgCl2, 0.1 mM thiamine pyrophosphate, 0.2 ml cell extract, and various concentrations of the herbicide of interest. The reaction mixtures were incubated at 30° C. for 75 minutes and the reaction terminated with the addition of 0.1 ml of 50% (v/v) H2 SO4. Following further incubation at 40° C. for 20 minutes, the acetoin formed from acetolactate by acidification was quantitated using the method of Westerfield (1945, J. Biol. Chem. 161: 495). To 0.2 ml of reaction mixture, 0.8 ml of water, 0.5 ml of 0.5% (w/v) creatine, and 0.5 ml of 5% (w/v) naphthol in 10% (w/v) NaOH was added. After mixing, solutions were incubated at room temperature for one hour. The development of pink color was quantitated by measuring light absorbance at 530 nm. […]
# [3] = test system: Black Mexican Sweet Corn tissue; experiment: Free amino acid levels in Black Mexican Sweet Corn suspension cultures; format: cell-based, maize; details: for activity at 10 µM / fold induction at 10 µM: Zea mays; for activity at 10 µM: After 48 hours of herbicide exposure; for fold induction at 10 µM: over a period of 48 hours, vs control cultures
# Method: Suspension culture cells were treated for 3.5 hours or 48 hours with 1×10^-5 M 997. Cells were removed from suspension by filtration and 1 gram fresh weight quantities were ground with sand with a mortar and pestle in 1 ml 5% TCA. Four ml of 5% TCA were added and the extract centrifuged at 10,000×g for 10 minutes. The pellet was reextracted and the supernatants combined and subjected to cation exchange chromatography. The samples were applied to Bond Elut SCX columns (Analytichem International Inc., Harbor City, Calif.) which had been equilibrated with 5% TCA. Following sample application, the columns were washed with 5 ml distilled, deionized water, and the amino acids were eluted with 2 ml aliquots of 5% v/v triethylamine. The aliquots were combined (6 ml), lyophilized, and subjected to amino acid analysis with a Kontron Liquemat III amino acid analyzer (Hesber, Middlesex TW5 OQU, England).
# [4] = test system: maize seedlings; experiment: Germination and seedling growth from excised mature maize embryos; format: in vivo; details: concentration in the media, shoot growth after seven days
# Method: The herbicidal effects of 997 on maize seedlings were determined by evaluating germination and seedling growth from excised, mature maize embryos (Green, 1974, Crop Sci. 14: 54-58). Seeds were sterilized for 10 minutes in 0.5% hypochlorite and then imbibed for 24 hours in sterile, distilled water. Mature embryos were aseptically excised and plated on solid MS media […] containing various concentrations of 997 and no 2,4-D. Embryos were placed with their shoot axis away from the media. Shoot growth was quantitated after seven days.
# [5] = 6×10^-8 M 214, seven days after plating
# [6] = 1 × 10^-5 M 997, 3.5 hr., Estimated
compound,measurement,setting,value
"CC(C)C1(C)NC(c2nc3ccccc3cc2C(=O)O)=NC1=O (centres unmarked) [compound 214, 2-(5-isopropyl-5-methyl-4-oxo-2-imidazolin-2-yl)3-quinolinecarboxylic acid]",root length of resistant seedlings,[1]; [5],6-7 cm
same,root length of sensitive seedlings,[1]; [5],0-1 cm
same,level of tolerance on an herbicide concentration basis,[1]; seedlings heterozygous for the tolerance trait,at least 5 fold
"CC(C)C1(C)NC(c2ncccc2C(=O)O)=NC1=O (centres unmarked) [compound 997, 2-(5-isopropyl-5-methyl-4-oxo-2-imidazolin-2-yl)nicotinic acid]",tolerance of AHAS activity vs AHAS from control cultures,[2],more tolerant
same,Free asp level,"[3]; 1 × 10^-5 M 997, 3.5 hr.",175 nmol per g fresh weight tissue
same,Free cystine (Oxidized cysteine) level,"[3]; 1 × 10^-5 M 997, 3.5 hr.",103 nmol per g fresh weight tissue
same,Free glu level,"[3]; 1 × 10^-5 M 997, 3.5 hr.",360 nmol per g fresh weight tissue
same,Free gly level,"[3]; 1 × 10^-5 M 997, 3.5 hr.",98 nmol per g fresh weight tissue
same,Free his level,"[3]; 1 × 10^-5 M 997, 3.5 hr.",184 nmol per g fresh weight tissue
same,Free ile level,"[3]; 1 × 10^-5 M 997, 3.5 hr.",120 nmol per g fresh weight tissue
same,Free leu level,"[3]; 1 × 10^-5 M 997, 3.5 hr.",120 nmol per g fresh weight tissue
same,Free lys level,"[3]; 1 × 10^-5 M 997, 3.5 hr.",212 nmol per g fresh weight tissue
same,Free met level,"[3]; 1 × 10^-5 M 997, 3.5 hr.",100 nmol per g fresh weight tissue
same,Free phe level,"[3]; 1 × 10^-5 M 997, 3.5 hr.",151 nmol per g fresh weight tissue
same,Free ser level,"[3]; 1 × 10^-5 M 997, 3.5 hr.",540 nmol per g fresh weight tissue
same,Free thr level,"[3]; 1 × 10^-5 M 997, 3.5 hr.",89 nmol per g fresh weight tissue
same,Free tyr level,"[3]; 1 × 10^-5 M 997, 3.5 hr.",112 nmol per g fresh weight tissue
same,Free val level,"[3]; 1 × 10^-5 M 997, 3.5 hr.",355 nmol per g fresh weight tissue
same,Free ala level,[3]; [6],600 nmol per g fresh weight tissue
same,Free arg level,[3]; [6],60 nmol per g fresh weight tissue
same,Free trp level,[3]; [6],30 nmol per g fresh weight tissue
same,Free ala level,"[3]; 1 × 10^-5 M 997, 48 hr.",455 nmol per g fresh weight tissue
same,Free arg level,"[3]; 1 × 10^-5 M 997, 48 hr.",55 nmol per g fresh weight tissue
same,Free asp level,"[3]; 1 × 10^-5 M 997, 48 hr.",100 nmol per g fresh weight tissue
same,Free cystine (Oxidized cysteine) level,"[3]; 1 × 10^-5 M 997, 48 hr.",435 nmol per g fresh weight tissue
same,Free glu level,"[3]; 1 × 10^-5 M 997, 48 hr.",175 nmol per g fresh weight tissue
same,Free gly level,"[3]; 1 × 10^-5 M 997, 48 hr.",60 nmol per g fresh weight tissue
same,Free his level,"[3]; 1 × 10^-5 M 997, 48 hr.",310 nmol per g fresh weight tissue
same,Free ile level,"[3]; 1 × 10^-5 M 997, 48 hr.",38 nmol per g fresh weight tissue
same,Free leu level,"[3]; 1 × 10^-5 M 997, 48 hr.",16 nmol per g fresh weight tissue
same,Free lys level,"[3]; 1 × 10^-5 M 997, 48 hr.",240 nmol per g fresh weight tissue
same,Free met level,"[3]; 1 × 10^-5 M 997, 48 hr.",405 nmol per g fresh weight tissue
same,Free phe level,"[3]; 1 × 10^-5 M 997, 48 hr.",195 nmol per g fresh weight tissue
same,Free ser level,"[3]; 1 × 10^-5 M 997, 48 hr.",1160 nmol per g fresh weight tissue
same,Free trp level,"[3]; 1 × 10^-5 M 997, 48 hr.",30 nmol per g fresh weight tissue
same,Free tyr level,"[3]; 1 × 10^-5 M 997, 48 hr.",130 nmol per g fresh weight tissue
same,Free val level,"[3]; 1 × 10^-5 M 997, 48 hr.",48 nmol per g fresh weight tissue
same,activity at 10 µM,[3]; read-out: free isoleucine level relative to untreated cell cultures,31%
same,activity at 10 µM,[3]; read-out: free leucine level relative to untreated cell cultures,8%
same,activity at 10 µM,[3]; read-out: free valine level relative to untreated cell cultures,12%
same,fold induction at 10 µM,[3]; read-out: increase of free cysteine during herbicide exposure,24
same,fold induction at 10 µM,[3]; read-out: increase of free methionine during herbicide exposure,8
same,fold induction at 10 µM,[3]; read-out: increase of free serine during herbicide exposure,3
same,herbicide concentration giving 50% growth inhibition,[4],1 to 3×10^-8 M
